From patent US20260364081A1, “METHOD FOR PREVENTING OR TREATING ATTENTION DEFICIT HYPERACTIVITY DISORDER (ADHD) AND FOR PREPARING A COMPOUND OR SALT THEREOF” (ASTROGEN, INC., priority 2023, published 2026)
Where a name gives a salt, the structure may show the parent alone. Read-outs that look alike come from different tables or passages of the source.

What was measured:
[1] = target: norepinephrine receptor (Homo sapiens, UniProt P23975); conditions: read-out: norepinephrine reuptake inhibition IC50, HEK-293T cells stably expressing the norepinephrine receptor, 30 min drug incubation, 37 °C, 30 min kinetic fluorescence reading
Sequence of norepinephrine receptor (P23975 whole entry): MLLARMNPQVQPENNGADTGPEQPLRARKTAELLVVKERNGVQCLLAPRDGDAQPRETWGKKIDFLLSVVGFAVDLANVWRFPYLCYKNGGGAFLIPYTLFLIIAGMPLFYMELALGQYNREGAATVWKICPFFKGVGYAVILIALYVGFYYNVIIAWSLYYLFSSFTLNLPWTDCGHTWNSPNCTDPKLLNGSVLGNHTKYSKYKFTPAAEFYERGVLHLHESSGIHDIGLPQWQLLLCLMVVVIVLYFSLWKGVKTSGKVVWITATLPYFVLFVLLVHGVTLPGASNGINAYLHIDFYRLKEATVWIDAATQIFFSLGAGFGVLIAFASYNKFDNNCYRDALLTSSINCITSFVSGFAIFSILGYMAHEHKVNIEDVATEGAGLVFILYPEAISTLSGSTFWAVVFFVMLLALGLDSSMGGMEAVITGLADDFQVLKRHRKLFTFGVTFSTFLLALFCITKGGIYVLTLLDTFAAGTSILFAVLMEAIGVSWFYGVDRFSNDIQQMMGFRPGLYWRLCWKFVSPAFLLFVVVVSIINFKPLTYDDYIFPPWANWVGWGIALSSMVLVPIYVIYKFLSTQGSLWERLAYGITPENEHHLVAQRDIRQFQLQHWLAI
Description: The norepinephrine reuptake ability in a cell line expressing the norepinephrine receptor was confirmed using a kit (Neurotransmitter Transporter Uptake Assay Kit, Molecular Devices) composed of a fluorescent material that mimics amine neurotransmitters and a masking dye.
First, HEK-293T cells stably expressing the norepinephrine receptor were seeded in a 96-well Black/Clear Bottom Plate to contain 6×10^4 cells in 100 μl of cell culture medium per well. After incubating for 20 hours in a 37 °C, 5% CO2 incubator to allow the cells to properly attach and stabilize on the plate, the cell culture medium was removed, and 100 μl of an HBSS+0.1% BSA with 20 mM HEPES aqueous solution in which a drug of a target concentration was dissolved was dispensed into each well. For the control group, 100 μl of a drug-free buffer solution (HBSS+0.1% BSA with 20 mM HEPES aqueous solution) was dispensed. The plate was incubated for 30 minutes in a 37 °C, 5% CO2 incubator to allow the drug to sufficiently react with the receptor.
Thereafter, fluorescence was measured for a total of 30 minutes in Kinetic reading mode at Ex/Em=440 nm/520 nm using a fluorescence plate reader (SpectraMax®). The measured fluorescence intensity value was converted into a value of “reuptake inhibition rate (%)” using the following formula, and then a dose-response curve was plotted through 4-parameter (Log) logistic regression, and the IC50 value for each drug was calculated and compared (FIGS. 4 and 5).

[2] = Thermal stability test (content by HPLC, visual discoloration); assay type: physicochemical; conditions: for Content at 0 weeks / remaining at 1344 h / Content after 8 weeks: HPLC; for Content at 0 weeks: start of storage at 40±2 °C and 75±5% RH; for remaining at 1344 h: solid, 75% rh, read-out: Content after 8 weeks; for remaining at 1344 h / Content after 8 weeks: 8 weeks at 40±2 °C and 75±5% RH, opaque glass vials; for Discoloration: visual, after 8 weeks at 40±2 °C and 75±5% RH; for Content after 8 weeks: 80640 min
Description: 8 mg each of the viloxazine hydrochloride of Comparative Examples 1 and 2, and the novel salts of (S)-viloxazine of Examples 6 to 16 were placed into opaque glass vials and stored at 40±2 °C and 75±5% RH. After 8 weeks, each sample was taken out, its content was analyzed by high-performance liquid chromatography (HPLC), and the presence of discoloration was visually confirmed (Table 2).

[3] = tested on: 5HT2B receptor; conditions: background statement; cited from earlier work
[4] = tested on: 5-HT2C receptor; conditions: background statement; cited from earlier work
[5] = tested on: norepinephrine reuptake; conditions: background statement, cited from earlier work
[6] = tested on: dopamine; conditions: background statement; cited from earlier work
[7] = tested on: CYP2D6; conditions: background statement; cited from earlier work
[8] = background statement; cited from earlier work
[9] = tested on: attention-deficit/hyperactivity disorder (ADHD); conditions: clinical trials, patients with ADHD, versus placebo; cited from earlier work
[10] = cited from earlier work

SMILES | IC50 [1] | Content at 0 weeks [2] | Content after 8 weeks [2] | also measured
CCOc1ccccc1OCC1CNCCO1 (racemic) [Comparative Example 1, (R,S)-viloxazine hydrochloride] | 62.9 µM | 99.5% |  | remaining at 1344 h [2]: 98.7%; Discoloration ([2]; hydrochloride): discolored to an off-white color; activity at 5HT2B receptor [3]: 5HT2B receptor antagonist; activity at 5-HT2C receptor [4]: 5-HT2C receptor agonist; norepinephrine reuptake inhibition (in words) ([5]; listed as Racemic viloxazine hydrochloride): selective inhibition of norepinephrine reuptake; norepinephrine reuptake inhibition (in words) ([5]; hydrochloride): selectively inhibits norepinephrine reuptake; effect on dopamine [6]: low effect on dopamine; metabolizing enzyme [7]: metabolized through the CYP2D6 enzyme; route of excretion of metabolites [8]: majority of its metabolites are excreted through urine; clinical efficacy in ADHD symptoms [9]: showed improved symptoms compared to patients who took a placebo; suicidal ideation or suicide risk ([10]; during initial treatment or dosage adjustment): increased risk of suicidal ideation or suicide; risk in patients with bipolar disorder ([10]; patients with bipolar disorder): risk of worsening symptoms in patients with bipolar disorder; most common side effects ([10]; patients): drowsiness, reduced appetite, fatigue, nausea, and insomnia; heart rate and blood pressure ([10]; some of the patients administered viloxazine HCl): increase in heart rate and blood pressure; risk of drug abuse, dependence, or withdrawal symptoms ([10]; upon treatment discontinuation): low risk of drug abuse, dependence, or withdrawal symptoms
CCOc1ccccc1OC[C@H]1CNCCO1 [Comparative Example 2, (R)-viloxazine hydrochloride, reference compound] | 108 µM | 99.2% |  | remaining at 1344 h [2]: 98.1%; Discoloration ([2]; hydrochloride): discolored to an off-white color
CCOc1ccccc1OC[C@@H]1CNCCO1 [Example 6, (S)-viloxazine hydrochloride] |  |  |  | IC50 ([1]; hydrochloride): 22.5 µM; Content at 0 weeks ([2]; hydrochloride): 99.5%; remaining at 1344 h [2]: 99.2%
CCOc1ccccc1OC[C@@H]1CNCCO1 [Example 7, (S)-viloxazine sulfate] | 29.3 µM | 99.3% | 98.6% | 
CCOc1ccccc1OC[C@@H]1CNCCO1 [Example 8, (S)-viloxazine hydrobromide] |  |  |  | IC50 ([1]; hydrobromide): 38.6 µM; Content after 8 weeks ([2]; hydrobromide): 99.0%; Content at 0 weeks ([2]; hydrobromide): 99.2%
CCOc1ccccc1OC[C@@H]1CNCCO1 [Example 9, (S)-viloxazine nitrate] | 42 µM | 98.2% | 97.7% | 
CCOc1ccccc1OC[C@@H]1CNCCO1 [Example 10, (S)-viloxazine acetate] | 24.3 µM | 99.6% | 99.3% | 
CCOc1ccccc1OC[C@@H]1CNCCO1 [Example 11, (S)-viloxazine trifluoroacetate] | 33.6 µM | 99.0% | 98.5% | 
CCOc1ccccc1OC[C@@H]1CNCCO1 [Example 12, (S)-viloxazine oxalate] | 34.3 µM | 99.1% | 98.6% | 
CCOc1ccccc1OC[C@@H]1CNCCO1 [Example 13, (S)-viloxazine fumarate] | 36.1 µM | 99.0% | 98.5% | 
CCOc1ccccc1OC[C@@H]1CNCCO1 [Example 14, (S)-viloxazine maleate] | 28.8 µM | 99.1% | 98.5% | 
CCOc1ccccc1OC[C@@H]1CNCCO1 [Example 15, (S)-viloxazine citrate] | 40.1 µM | 99.0% | 98.6% | 
CCOc1ccccc1OC[C@@H]1CNCCO1 [Example 16, (S)-viloxazine methanesulfonate] |  | 98.0 → 98.0% | 98.0 → 98.0% | 
